This is an account of results in patent US5998180A, “Nitrilase from Rhodoccus rhodochrous for converting acrylonitrile directly to acrylic acid” (priority 1995, dated 1999).

SMILES strings stand for the structures. Read-outs that look alike come from different tables or passages of the source.

The target in test [1] is T1, Rhodococcus rhodochrous K22 nitrilase (Rhodococcus rhodochrous, UniProt Q02068).
T1 sequence (Q02068 1-383): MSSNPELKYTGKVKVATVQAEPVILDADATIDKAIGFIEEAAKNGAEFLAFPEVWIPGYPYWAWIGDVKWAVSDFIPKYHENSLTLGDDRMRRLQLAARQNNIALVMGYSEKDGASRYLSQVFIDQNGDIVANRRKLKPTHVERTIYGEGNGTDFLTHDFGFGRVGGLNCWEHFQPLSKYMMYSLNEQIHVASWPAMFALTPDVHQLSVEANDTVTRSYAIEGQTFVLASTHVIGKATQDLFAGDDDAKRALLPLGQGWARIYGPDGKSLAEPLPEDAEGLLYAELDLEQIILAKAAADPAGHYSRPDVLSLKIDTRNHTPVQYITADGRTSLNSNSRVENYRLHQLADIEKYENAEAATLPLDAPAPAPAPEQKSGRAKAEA
Particulars: read-out: Km (acrylonitrile); reported in J. Bacteriol. 172, 9, 4807-4815; cited from earlier work.

The test system of test [2] is Fusarium oxysporum f.sp. melonis nitrilase. Particulars: read-out: Km (acrylonitrile), cited from earlier work.
The subject of test [3] is Rhodococcus rhodochrous NCIMB 40757 nitrilase. Nature of the test: Nitrilase kinetics of whole cells (acrylonitrile to ammonium acrylate). Particulars: for Km: 30° C. Format: biochemical. How it is done:
A novel nitrilase is characterised by having Km for acrylonitrile below 500 μM. Throughout this specification Km refers to Km measured at pH 7.0. […] In particular we use the conditions of Example 6 below. […] Microbial., 135 3153-3164 and those described for lactate dehydrogenase by Wagner (1990) Tibtech., 8, 263-270 will yield nitrilase having Km values up to 60 or 100, or perhaps 300 μM, and Km values down to. 9.4 and even 3.8 μM.
A novel nitrilase of the invention is characterised by having Ki for ammonium acrylate of at least 100 mM, preferably at least 150 or 200, more preferably at least 250 mM. Throughout this specification Ki refers to Ki measured at pH 7.0. […] Preferably measurement is under the conditions given in Example 7 below. […] It is envisaged that standard techniques and selection procedures, eg mutagenesis, will yield nitrilase having Ki for ammonium acrylate up to 300 mM or even 800 mM or greater.
The cells of the Rhodococcus rhodochrous strain grown as described in Example 1 were suspended in solutions of 50 mM pH 7 sodium phosphate buffer at 30° C. containing the concentrations of acrylonitrile shown in the table below. Samples were taken over time to determine the acrylonitrile, acrylamide and ammonium acrylate concentrations in the cell suspensions.
The cells of the Rhodococcus rhodochrous strain grown as described in Example 1 were suspended in solutions of 1.2 M ammonium acrylate at 30° C. containing the concentrations of acrylonitrile shown in the table below. Samples were taken over time to determine the acrylonitrile, acrylamide and ammonium acrylate concentrations in the cell suspensions.

Usually Km stands for the concentration of substrate that gives half-maximal velocity. Regarding `C=CC#N` [acrylonitrile], the Michaelis-Menten constant (Km) is 1140 µM in test [1]; 17000 µM in test [2] (Goldlust and Bohak (1989)); 17000 µM in test [2] (reported in Biotech. Appl. Biochem., 1989, 11, 581-601); 30.6 µM in test [3] (whole cell form, 50 mM pH 7 sodium phosphate buffer, read-out: Km for acrylonitrile); 145 µM in test [3] (whole cells in 1.2 M ammonium acrylate, read-out: apparent Km (acrylonitrile) in 1.2 M ammonium acrylate).
With `C=CC(=O)O` [ammonium acrylate], in test [3] (initial experiments), the “ratio (Ki for ammonium acrylate)/(Km for acrylonitrile)” value is listed as “greater than 10000”.
